Source: US10206979B2, “Treatment agent for cognitive impairment induced by amyloid beta-protein, therapeutic agent for alzheimer's disease, and treatment method and pathological analysis method related to these” (NATIONAL UNIVERSITY CORPORATION OKAYAMA UNIVERSITY, priority 2013, dated 2019)
No end group written: not given here.

Tests used:
[1] = test system: memory disorder induced by amyloid β protein oligomer; assay: novel object recognition test in mouse model of memory disorder by administration of the amyloid β protein oligomer; format: in vivo, ICR mice; conditions: for ability to remember (exploration time for novel object vs familiar object): 1 μM amyloid β protein oligomer + 10 μM peptide in artificial cerebrospinal fluid, 3.5 μl/side to lateral ventricles, test session 24 h after training, paired t-test
Procedure: Preparation of a mouse model of memory disorder by administration of the amyloid β protein oligomer, and evaluation of the ability of memory acquisition by a novel object recognition test were carried out according to an earlier paper (Balducci et al., Proc Natl Acad Sci USA 107, 2295-2300, 2010).
ICR mice (6 to 7 weeks old) were anesthetized with ketamine (100 mg/kg) and xylazine (40 mg/kg), and each mouse was fixed on a brain stereotaxic apparatus. After removal of the scalp, small holes were made on the skull on the lateral ventricles, and guide cannulae (23 gage) were bilaterally embedded at the positions of ±1.0 mm lateral and 0.65 mm posterior to the bregma. The guide cannulae were fixed with a dental resin. After a period of four to five days for recovery from the surgery, each mouse was allowed to move freely for 10 minutes in order to allow acclimatization to the environment in a test cage (39 cm×22 cm) (habituation). This was continued for 3 days. On the next day, an artificial cerebrospinal fluid (control), artificial cerebrospinal fluid in Which 1 μM amyloid β protein oligomer is dissolved, or artificial cerebrospinal fluid in which 1 μM amyloid β protein oligomer and 10 μM p3-Alcβ37 peptide or a partial peptide thereof are dissolved, was bilaterally administered (3.5 μl/side) to the lateral ventricles through the guide cannulae embedded in the head, using an injection cannulae (30 gage, 1.7 mm from the brain surface).
Two hours after the administration, two identical objects (glass vials each having a plastic cap [objects A]: 3-cm diameter×6.5-cm height) were placed in the test cage for which the habituation had been carried out, such that the objects were positioned about 20 cm distant from each other. In the test cage, each mouse was allowed to move freely for 10 minutes to allow learning of the object A (training session). On the next day, 24 hours after the learning, a test was carried out to investigate if the mouse remembered the object A, which was presented on the previous day (test session). More specifically, in the same test cage, the object A presented on the previous day (that is, a familiar object) and a novel object (a metal cube [object B]: 4 cm×4 cm×4 cm) were placed at the same positions as those used on the previous day, and the mouse was allowed to move freely for 10 minutes in the test cage. In normal mice, since they naturally show interest in novel objects, the time for exploring the novel object (object B) is longer than the time for exploring the familiar object (object A). […] The exploratory behavior for each object was recorded using a video camera, and the total exploration time for each object was calculated. The time spent for contacting or approach of the head to the object (including sniffing), and contacting of a forelimb or hindlimb with the object was included in the exploration time. The ability of memory acquisition of the mice in each group was represented using the discrimination index. The discrimination index was defined as follows: ([exploration time for novel object]−[exploration time for familiar object ])/([exploration time for novel object]+[exploration time for familiar object]). In cases where discrimination between the novel object and the familiar object is impossible, the discrimination index is 0, while in cases where the exploration time for the novel object is longer than the exploration time for the familiar object, the discrimination index is positive. […] Therefore, the calculation of the exploration time and the discrimination index was carried out based on the behavior observed during the first 5 minutes after the placement of the mouse in the test cage.
In terms of the reagents used, the composition of the artificial cerebrospinal fluid was as follows: 137 mM NaCl, 3 mM KCl, 1 mM MgCl2, 1.2 mM CaCl2, 2.5 mM glucose, and 2 mM sodium phosphate buffer (pH 7.4). […]

[2] = test system: memory disorder induced by MK-801 (NMDA receptor-dependent memory disorder); assay: novel object recognition test in mouse model of memory disorder prepared by administration of NMDA receptor inhibitor MK-801; format: in vivo, ICR mice; conditions: 10 μM peptide to cerebral ventricle; (+)-MK-801 maleate 2 mg/kg intraperitoneally; paired t-test, P>0.05
Procedure: ICR mice (6 to 7 weeks old) were anesthetized with ketamine (100 mg/kg) and xylazine (40 mg/kg), and each mouse was fixed on a brain stereotaxic apparatus. After removal of the scalp, small holes were made on the skull on the lateral ventricles, and guide cannulae (23 gage) were bilaterally embedded at the positions of ±1.0 mm lateral and 0.65 mm posterior to the bregma. The guide cannulae were fixed with a dental resin. After a period of four to five days for recovery from the surgery, each mouse was allowed to move freely for 10 minutes in order to allow acclimatization to the environment in a test cage (39 cm×22 cm) (habituation). This was continued for 3 days. […]
Two hours after the administration, two identical objects (glass vials each having a plastic cap [objects A]: 3-cm diameter×6.5-cm height) were placed in the test cage for which the habituation had been carried out, such that the objects were positioned about 20 cm distant from each other. […] The exploratory behavior for each object was recorded using a video camera, and the total exploration time for each object was calculated. […]

Sequence | ability to remember (exploration time for novel object vs familiar object) [1] | discrimination index relative to the group in which the oligomer was administered ([1]; 1 μM oligomer + 10 μM peptide, lateral ventricles, Tukey test, P<0.01) | discrimination index relative to the group in which the artificial cerebrospinal fluid was administered ([1]; 1 μM oligomer + 10 μM peptide, lateral ventricles, Tukey test, P>0.05) | effect to ameliorate memory disorder (exploration time for novel object vs familiar object) [2]
GHSLASSHRNSMIPSAAT (a part of p3-Alc beta 37 (position 20-37)) [p3-Alcβ37 [20-37], partial peptide corresponding to positions 20 to 37 of p3-Alcβ37] | no recovery of the ability to remember |  |  | 
HRGHQPPPEMA (a part of p3-Alc beta 37 (position 9-19)) [p3-Alcβ37[9-19], partial peptide corresponding to positions 9 to 19 of p3-Alcβ37 (11 amino acids)] | ability to remember showed remarkable recovery |  |  | 
VLSSQQFLHRG (a part of p3-Alc beta 37 (position 1-11)) [p3-Alcβ37[1-11], partial peptide corresponding to positions 1 to 11 of p3-Alcβ37] | ability to remember remained impaired |  |  | 
VLSSQQFLHRGHOPPPEMA (VLSSQQFLHRGHQPPPEMA; not fully specified) [p3-Alcβ37 [1-19], partial peptide corresponding to positions 1 to 19 of p3-Alcβ37] | remarkable recovery of the ability to remember |  |  | 
VLSSQQFLHRGHQPPPEMAGHSLASSHRNSMIPSAAT (listed as Homo sapiens) [p3-Alcβ37, peptide composed of 37 amino acids produced by cleavage of Alcadein-β by γ-secretase and α-secretase] | remarkable recovery of the ability to remember | significant increase in the discrimination index | No significant difference in the discrimination index | effect to ameliorate memory disorder was not found
